Patent US20240009271A1, “METHODS OF TREATING METASTATIC CANCERS USING AXL DECOY RECEPTORS” (Aravive Inc, priority 2017, published 2024)

Test system: MDA-MB-231 Axl+ TNBC cells
Assay: MDA-MB-231 Matrigel cell invasion assay
Assay type: cell-based
Settings: Homo sapiens
Protocol: Inhibition of GAS6-induced invasion/migration was evaluated in models for triple-negative breast (MDA-MB-231) and ovarian (OVCAR8) cancers using the Corning® Matrigel® or collagen invasion assays, respectively, and using an AXL decoy receptor which comprises a soluble AXL variant polypeptide comprising amino acid changes relative to wild-type AXL sequence (SEQ ID NO:1) at the following positions: (a) glycine 32; (b) aspartic acid 87; (c) alanine 72; (d) valine 92; and (e) glycine 127, lacking the AXL transmembrane domain, lacking a functional FN domain, and comprising an Fc domain linked to the soluble AXL variant polypeptide by a peptide linker (hereinafter referred to as AVB-S6-500).
AVB-S6-500 and MDA-MB-231 Axl^+ TNBC cells in serum free media were seeded in the top of a Matrigel-coated Boyden Chamber. Media with serum as a chemo-attractant was added to the chamber bottom. After 24 hours incubation, the number of cells that migrated across the Matrigel were counted and expressed as the fraction of invasive cells relative to a PBS control (FIG. 1A).
Representative images from the AVB-S6-500 treated MDA-MB-231 cells are depicted in FIG. 2.

- IC50: 24 nM
SMILES: COc1cc(Nc2c(C#N)cnc3cc(OCCCN4CCN(C)CC4)c(OC)cc23)c(Cl)cc1Cl [Bosutinib, bosutinib]
